Data on 25 molecules can be found in PubChem BioAssay (NCI).

Where “and” joins values, the source holds several entries; their conditions need not be identical. Identical values can stand only once.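 Briefly, cells in 96-well plates were exposed to five compound concentrations for 48 h, and endpoints were estimated by linear interpolation. GI50 is the concentration that inhibits growth by half. TGI marks complete inhibition of growth.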

Among the test systems are UACC-62 melanoma; SNB-78 CNS; M19-MEL melanoma; DLD-1 colon; SK-MEL-5 melanoma; MDA-MB-231 breast; TK-10 renal; T-47D breast; MDA-N; HS 578T breast; SR leukemia; MDA-MB-435.
Experiment in all cases: growth of human tumour cells (NCI), 48 h

In the case of `OCC1OC(n2cnc3cncnc32)C(O)C1O` (stereo not given), the TGI amounted to 2.46 µM in the experiment with UACC-62 melanoma; 39.1 µM in the experiment on SNB-78 CNS; 14.1 µM with M19-MEL melanoma; 1.82 µM in the experiment on DLD-1 colon; 3.25 µM in the experiment with SK-MEL-5 melanoma.
Regarding `CCOP(=O)(OCC)C(Nc1cccc(F)c1)c1ccccc1` (stereo not given), the TGI with MDA-MB-231 breast, in the experiment on TK-10 renal, with UACC-62 melanoma, in the experiment on T-47D breast, with MDA-N and in the experiment on HS 578T breast was greater than 100 µM each time. Besides, the TGI in the experiment on SR leukemia, in the experiment with SK-MEL-5 melanoma and in the experiment with MDA-MB-435 was greater than 100 µM throughout.
As for `Cc1ccc(C(=O)O)c(CC2Cc3c(C)cccc3C2=O)c1` (stereo not given), the TGI in the experiment with MDA-MB-231 breast, in the experiment with TK-10 renal, in the experiment on UACC-62 melanoma, with T-47D breast, in the experiment on MDA-N and with HS 578T breast was greater than 100 µM in each case. Moreover, the TGI in the experiment on SR leukemia, with SK-MEL-5 melanoma and in the experiment on MDA-MB-435 was greater than 100 µM each time.
Turning to `Cc1ccc(C(C)(C)C[P+](C)(c2ccccc2)c2ccccc2)cc1`, the TGI in the experiment on UACC-62 melanoma is 61.4 µM; in the experiment with SNB-78 CNS, 88.1 µM; in the experiment on M19-MEL melanoma, greater than 89 µM; in the experiment with DLD-1 colon, greater than 100 µM; in the experiment on SK-MEL-5 melanoma, 12.7 µM.
As for `COc1ccc2c(c1)C(N)=C(c1ccccc1)C2=O`, the TGI was greater than 100 µM in the experiment with MDA-MB-231 breast; greater than 100 µM in the experiment on TK-10 renal; greater than 100 µM in the experiment with UACC-62 melanoma; greater than 100 µM in the experiment on T-47D breast; greater than 100 µM in the experiment on MDA-N; 56.3 µM with HS 578T breast. Besides, the TGI with SR leukemia, in the experiment on SK-MEL-5 melanoma and with MDA-MB-435 was greater than 100 µM each time.
Consider `O=[N+]([O-])c1ccc(S[C@@H]2[C@H]3c4c(-c5ccccc5)[nH]c(-c5ccccc5)c4[C@@H]2C[C@H]3Cl)cc1`, for which the TGI in the experiment on MDA-MB-231 breast was greater than 100 µM; in the experiment with TK-10 renal, greater than 100 µM; in the experiment on UACC-62 melanoma, 37.3 µM; in the experiment with T-47D breast, 8.67 µM; in the experiment with MDA-N, 18.6 µM; in the experiment with HS 578T breast, 72.2 µM. Also, the TGI is greater than 100 µM with SR leukemia, 23.5 µM in the experiment on SK-MEL-5 melanoma and 27.8 µM in the experiment with MDA-MB-435.
On to `CC(C)=CCC[C@@H](C)C1=C(Nc2ccccc2Cl)C(O)=C(C)C(=O)C1=O`, for which the TGI in the experiment with MDA-MB-231 breast is greater than 100 µM; with TK-10 renal, greater than 100 µM; in the experiment with UACC-62 melanoma it was 18 µM; in the experiment with T-47D breast, 34.1 µM; with MDA-N it was 27 µM; with HS 578T breast it was 13.1 µM. For the same molecule, the results for the TGI in the experiment on SR leukemia, in the experiment on SK-MEL-5 melanoma and in the experiment on MDA-MB-435 were greater than 57.6 µM, 10.1 µM and 36.1 µM, respectively.
With `N#CC(C#N)=C1C(C#N)=C(N)NC12OCCO2`, the TGI in the experiment on MDA-MB-231 breast, with TK-10 renal, in the experiment on UACC-62 melanoma, in the experiment on T-47D breast, in the experiment with MDA-N and in the experiment on HS 578T breast was greater than 100 µM throughout. The TGI in the experiment with SR leukemia, with SK-MEL-5 melanoma and in the experiment on MDA-MB-435 was greater than 100 µM each time.
For `Cc1cc(C)c(P2C(=C(O[Si](C(C)C)(C(C)C)C(C)C)C(C)(C)C)C2(c2ccccc2)c2ccccc2)c(C)c1` (stereo not given), the TGI with MDA-MB-231 breast, in the experiment with TK-10 renal, with UACC-62 melanoma, with T-47D breast, in the experiment on MDA-N and in the experiment on HS 578T breast was greater than 100 µM each time. In addition, the TGI with SR leukemia, with SK-MEL-5 melanoma and in the experiment with MDA-MB-435 was greater than 100 µM each time.
`CC[N+](C)(CC)CCC(O)(c1ccccc1)c1ccccc1`: the TGI in the experiment on MDA-MB-231 breast, in the experiment on TK-10 renal, with UACC-62 melanoma, in the experiment with T-47D breast, in the experiment with MDA-N and with HS 578T breast was greater than 100 µM throughout. Also, the TGI with SR leukemia, with SK-MEL-5 melanoma and in the experiment on MDA-MB-435 was greater than 100 µM each time.
In the case of `CCOC(=O)C(NC(=O)N(C1=NCC(C)S1)C1CCCCC1)(OC)C(F)(F)F` (stereo not given), the TGI in the experiment on MDA-MB-231 breast, in the experiment with TK-10 renal, with UACC-62 melanoma, with T-47D breast, in the experiment on MDA-N and in the experiment with HS 578T breast was greater than 100 µM each time. Moreover, the results for the TGI in the experiment with SR leukemia, in the experiment with SK-MEL-5 melanoma and in the experiment with MDA-MB-435 were greater than 100 µM, 66.8 µM and greater than 100 µM, respectively.
Take `C/C(=N\NC(=S)N1CCCCC1)c1cccc(C)n1`: the TGI in the experiment with MDA-MB-231 breast was 16.5 µM; in the experiment with TK-10 renal it was 21.3 µM; in the experiment with UACC-62 melanoma it was 0.352 µM; in the experiment with T-47D breast, 16.9 µM; in the experiment on MDA-N it was 20.3 µM; with HS 578T breast, greater than 100 µM. Moreover, the TGI is greater than 100 µM in the experiment with SR leukemia, 0.449 µM in the experiment on SK-MEL-5 melanoma and 16.8 µM with MDA-MB-435.
Take `Cc1cccc2c1[nH]c1[nH]c(=O)[nH]c(=O)c12`: the TGI in the experiment with MDA-MB-231 breast, in the experiment on TK-10 renal, in the experiment with UACC-62 melanoma, in the experiment with T-47D breast, in the experiment with MDA-N and with HS 578T breast was greater than 100 µM each time. Moreover, the TGI with SR leukemia, with SK-MEL-5 melanoma and with MDA-MB-435 was greater than 100 µM in each case.
On to `O=CC(O)C(O)C(O)C(O)C(=O)NCCCCCCCCCCCCNC(=O)C(O)C(O)C(O)C(O)C=O` (stereo not given), for which the TGI in the experiment on MDA-MB-231 breast, with TK-10 renal, in the experiment with UACC-62 melanoma, in the experiment with T-47D breast, in the experiment with MDA-N and in the experiment with HS 578T breast was greater than 100 µM in each case. The TGI with SR leukemia, in the experiment with SK-MEL-5 melanoma and in the experiment with MDA-MB-435 was greater than 100 µM in each case.
With `Nc1cccc2c1C(=O)c1cccc(N)c1C2=O`, the TGI in the experiment on TK-10 renal, in the experiment on UACC-62 melanoma, in the experiment on SNB-78 CNS, in the experiment on M19-MEL melanoma, in the experiment on DLD-1 colon and with SK-MEL-5 melanoma was greater than 100 µM throughout.
For the molecule `COC(=O)C1CCC(=O)N1C(=O)Cc1ccc(OC)cc1` (stereo not given), the TGI with TK-10 renal, in the experiment with UACC-62 melanoma, with SNB-78 CNS, in the experiment on M19-MEL melanoma and in the experiment with SK-MEL-5 melanoma was greater than 100 µM throughout.
On to `[Cl][Pt+2][Cl].[NH-]C1CCCCC1[NH-]` (stereo not given), for which the GI50 in the experiment on UACC-62 melanoma is 11.7 µM and 10.1 µM and 1.47 µM; in the experiment with SNB-78 CNS it was 29 µM and 30 µM and 11.5 µM. Moreover, the TGI in the experiment on UACC-62 melanoma is 43.4 µM and > 100 µM and 17.3 µM; with SNB-78 CNS, greater than 100 µM; in the experiment on M19-MEL melanoma, 23.9 µM and 25.7 µM and 10.6 µM; with DLD-1 colon, greater than 100 µM; with SK-MEL-5 melanoma it was 33 µM and 19.5 µM and 4.39 µM.
Turning to `CCc1c(Cc2cccc3ccccc23)n2c(nc1=O)SCC2OCCO` (stereo not given), the TGI with MDA-MB-231 breast, in the experiment on TK-10 renal, in the experiment on UACC-62 melanoma, with T-47D breast, with MDA-N and in the experiment with HS 578T breast was greater than 100 µM each time. The TGI in the experiment with SR leukemia is 89.4 µM; in the experiment with SK-MEL-5 melanoma, greater than 100 µM; in the experiment with MDA-MB-435, 38.4 µM.
`Cc1ccc(S(=O)(=O)NNC(=O)c2cc(C)ccc2NC(=O)C23CC4CC(CC(C4)C2)C3)cc1`: the TGI in the experiment on MDA-MB-231 breast, with TK-10 renal, in the experiment on UACC-62 melanoma, in the experiment with T-47D breast, in the experiment on MDA-N and in the experiment on HS 578T breast was greater than 100 µM in each case. Besides, the TGI in the experiment on SR leukemia, in the experiment with SK-MEL-5 melanoma and in the experiment with MDA-MB-435 was greater than 100 µM in each case.
Take `Cc1ccccc1-n1c(C)nc2c1C(=O)c1ccccc1C2=O`: the TGI was greater than 100 µM in the experiment on TK-10 renal; greater than 100 µM in the experiment on UACC-62 melanoma; greater than 100 µM in the experiment on SNB-78 CNS; 48.5 µM in the experiment on M19-MEL melanoma; greater than 100 µM with SR leukemia; 53.7 µM in the experiment on SK-MEL-5 melanoma.
As for `Cc1cc(=O)n2nc(SCc3ccccc3)sc2n1`, the TGI with MDA-MB-231 breast, with TK-10 renal, in the experiment with UACC-62 melanoma, in the experiment on T-47D breast, in the experiment with MDA-N and in the experiment on HS 578T breast was greater than 100 µM throughout. Moreover, the TGI in the experiment with SR leukemia, in the experiment with SK-MEL-5 melanoma and with MDA-MB-435 was greater than 100 µM in each case.
With `COc1nc2c(c(=O)n1C)N[C@H]1[C@H](OC(C)=O)[C@@H](OC(C)=O)CO[C@H]1N2`, the TGI in the experiment with MDA-MB-231 breast, in the experiment with TK-10 renal, in the experiment with UACC-62 melanoma, with T-47D breast, in the experiment on MDA-N and in the experiment on HS 578T breast was greater than 100 µM in each case. The TGI in the experiment on SR leukemia, in the experiment on SK-MEL-5 melanoma and in the experiment on MDA-MB-435 was greater than 100 µM in each case.
On to `c1ccc(CCNCc2ccco2)nc1`, for which the TGI was greater than 100 µM in the experiment on MDA-MB-231 breast; greater than 100 µM in the experiment with TK-10 renal; greater than 100 µM in the experiment on UACC-62 melanoma; greater than 28.5 µM in the experiment with T-47D breast; greater than 100 µM with MDA-N; greater than 100 µM with HS 578T breast. Besides, the TGI with SR leukemia, in the experiment on SK-MEL-5 melanoma and in the experiment with MDA-MB-435 was greater than 100 µM throughout.
With `Cc1ccncc1.F[B-](F)(F)F.[Pt+2].c1ccc(-c2cccc(-c3ccccn3)n2)nc1`, the TGI was greater than 100 µM with MDA-MB-231 breast; 28.5 µM with TK-10 renal; 36.5 µM in the experiment with UACC-62 melanoma; 42.9 µM in the experiment with T-47D breast; greater than 100 µM in the experiment with MDA-N; greater than 45 µM in the experiment with HS 578T breast. In addition, the values for the TGI with SR leukemia, with SK-MEL-5 melanoma and in the experiment with MDA-MB-435 were greater than 100 µM, 21.7 µM and greater than 81.4 µM, respectively.
With `O=C1C=CC(=O)C(CNc2ccc(C(=O)OC34CC5CC(CC(C5)C3)C4)cc2)=C1`, the TGI with MDA-MB-231 breast turned out to be 36.2 µM; in the experiment with TK-10 renal it was 23.8 µM; in the experiment on UACC-62 melanoma it was 16.5 µM; with T-47D breast, 6.88 µM; in the experiment with MDA-N, 19.2 µM; with HS 578T breast, 10.9 µM. Also, the TGI was greater than 29.3 µM with SR leukemia, 16.7 µM in the experiment with SK-MEL-5 melanoma and 23 µM in the experiment on MDA-MB-435.
